Among the data in PubChem BioAssay (NCI) are TGI and GI50 values, retold here.

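Protocol summary: plate cells (96-well), add compound at 5 concentrations, incubate 48 h, interpolate endpoints linearly. The concentration for 50% growth inhibition is given as GI50. At the TGI there is no net growth.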

Among the test systems are SW-620 colon; SN12C renal; SK-MEL-28 melanoma; NCI-H23 lung; MALME-3M melanoma; M14 melanoma; LOX IMVI melanoma; UACC-62 melanoma; MDA-MB-435; NCI/ADR-RES ovarian.
Assay in all cases: growth of human tumour cells (NCI), 48 h

Regarding `COc1cc(C2C(C(=O)Nc3ccccc3)=C(C)NC(C)=C2C(=O)Nc2ccccc2)ccc1O`, the TGI in the assay with SW-620 colon, in the assay on SN12C renal, in the assay on SK-MEL-28 melanoma, with NCI-H23 lung and in the assay on MALME-3M melanoma was > 100 µM in each case.
For `O=c1[nH]c(=S)[nH]c(O)c1/C=C1\C=CC=N1`, the TGI was determined as 23.5 µM with SW-620 colon; 22.5 µM in the assay on SN12C renal; 48.5 µM with SK-MEL-28 melanoma; 54.8 µM in the assay on M14 melanoma; 46.2 µM in the assay with LOX IMVI melanoma; 40 µM in the assay with NCI-H23 lung. Besides, the values for the TGI in the assay on UACC-62 melanoma and with MALME-3M melanoma were 35.6 µM and 34.4 µM, respectively.
Turning to `CCNCC(O)c1ccc(N)c([N+](=O)[O-])c1` (centres undefined), the TGI in the assay with SW-620 colon, with SN12C renal, with MDA-MB-435, with SK-MEL-28 melanoma, in the assay with M14 melanoma and with LOX IMVI melanoma was > 100 µM each time. Also, the TGI in the assay with NCI-H23 lung, in the assay with UACC-62 melanoma and with NCI/ADR-RES ovarian was > 100 µM each time.
As to `O=[N+]([O-])c1ccccc1C1N2CCCCC2[C@@H]2c3[nH]c4ccccc4c3CCN12` (some centres undefined), the TGI in the assay on SW-620 colon turned out to be 23.4 µM; with SN12C renal it was 26.6 µM; in the assay with SK-MEL-28 melanoma, 26.6 µM; in the assay with M14 melanoma, 26.7 µM; with NCI-H23 lung it was 27.5 µM; with UACC-62 melanoma, 14.4 µM.
Take `Fc1ccccc1C1CC(C(c2ccccc2)c2ccccc2)=Nc2ccccc2S1` (centres undefined): the TGI in the assay on SW-620 colon stood at 31 µM; in the assay on SN12C renal, 26 µM; with SK-MEL-28 melanoma it was 25.1 µM; with M14 melanoma, 25.7 µM; in the assay with LOX IMVI melanoma, 19.7 µM; in the assay on NCI-H23 lung it was 24.7 µM. Also, the TGI was found to be 18.7 µM in the assay on UACC-62 melanoma and 29.5 µM in the assay on MALME-3M melanoma.
Take `O=[N+]([O-])c1ccc(Cl)c(C2SCc3nc4ccccc4n32)c1` (centres undefined): the TGI in the assay on SW-620 colon was 88.3 µM; in the assay with SN12C renal it was > 100 µM; in the assay with SK-MEL-28 melanoma, > 100 µM; in the assay with NCI-H23 lung, > 100 µM; with UACC-62 melanoma, > 100 µM; in the assay on MALME-3M melanoma it was > 100 µM.
On to `COc1ccc2c(c1)CC[C@@H]1C2CC[C@]2(C)C(=O)NC(=O)CC12` (some centres undefined), for which the TGI in the assay on SW-620 colon, in the assay with SN12C renal, in the assay with M14 melanoma, with LOX IMVI melanoma, with NCI-H23 lung and in the assay with UACC-62 melanoma was > 100 µM in each case. Also, the TGI in the assay with MALME-3M melanoma is > 100 µM.
On to `CCc1cccc(C)c1NC(=O)NS(=O)(=O)c1ccc(C)cc1`, for which the TGI in the assay with SW-620 colon, in the assay on SN12C renal, with SK-MEL-28 melanoma, in the assay with M14 melanoma, in the assay with LOX IMVI melanoma and in the assay on NCI-H23 lung was > 100 µM throughout. Moreover, the TGI in the assay with UACC-62 melanoma and with MALME-3M melanoma was > 100 µM throughout.
As to `Cc1cc(C)nc(NS(=O)(=O)c2ccc(NC(=O)c3cccc4cc5ccccc5nc34)cc2)n1`, the TGI is > 100 µM with SW-620 colon; > 100 µM with SN12C renal; > 100 µM in the assay with SK-MEL-28 melanoma; 51.4 µM in the assay on M14 melanoma; 56.1 µM in the assay on LOX IMVI melanoma; 86.5 µM with NCI-H23 lung. Besides, the results for the TGI in the assay with UACC-62 melanoma and in the assay with MALME-3M melanoma were 79.3 µM and 56.7 µM, respectively.
Regarding `Cc1cc(C)c(C(=O)OC(c2ccccc2)C(c2ccccc2)N2CCOCC2)c(C)c1` (centres undefined), the TGI with SW-620 colon, with SN12C renal, with SK-MEL-28 melanoma, in the assay with M14 melanoma, in the assay with LOX IMVI melanoma and in the assay on NCI-H23 lung was > 100 µM in each case. Further, the TGI with UACC-62 melanoma and in the assay with MALME-3M melanoma was > 100 µM in each case.
Consider `O=Nc1c(O)ccc2ccccc12`, for which the GI50 with SW-620 colon is 2.46 µM; in the assay on SN12C renal it was 1.75 µM; in the assay on MDA-MB-435 it was 1.88 µM; in the assay on SK-MEL-28 melanoma, 2.8 µM; in the assay with M14 melanoma it was 1.92 µM; in the assay on LOX IMVI melanoma, 2.36 µM. Moreover, the GI50 was 1.86 µM in the assay on UACC-62 melanoma and 2.92 µM with NCI/ADR-RES ovarian. In addition, the TGI came out at 8.04 µM in the assay on SW-620 colon; 3.4 µM in the assay on SN12C renal; 3.38 µM with MDA-MB-435; 6.6 µM in the assay on SK-MEL-28 melanoma; 3.84 µM in the assay on M14 melanoma; 7.51 µM with LOX IMVI melanoma. Further, the TGI in the assay with UACC-62 melanoma came to 3.83 µM; in the assay on NCI/ADR-RES ovarian, 9.21 µM.
As to `CN(O)C(=O)Cc1ccccc1`, the TGI with SW-620 colon, in the assay on SN12C renal, in the assay on SK-MEL-28 melanoma, with M14 melanoma, in the assay on LOX IMVI melanoma and in the assay with NCI-H23 lung was > 100 µM throughout. Moreover, the TGI with UACC-62 melanoma and in the assay with MALME-3M melanoma was > 100 µM throughout.
Regarding `C[Si](C)(C)/C=C/CN1C(=O)CCC1O` (centres undefined), the TGI with SW-620 colon, with SN12C renal, in the assay on SK-MEL-28 melanoma, in the assay on M14 melanoma, with LOX IMVI melanoma and in the assay with NCI-H23 lung was > 100 µM in each case. Besides, the TGI in the assay with UACC-62 melanoma and in the assay with MALME-3M melanoma was > 100 µM each time.
`COc1ccc(O)c2c1C(=O)CCCC2=O`: the TGI with SW-620 colon, with SN12C renal, in the assay on SK-MEL-28 melanoma, in the assay on M14 melanoma, in the assay with LOX IMVI melanoma and in the assay on NCI-H23 lung was > 100 µM in each case. In addition, the TGI in the assay on UACC-62 melanoma and in the assay with MALME-3M melanoma was > 100 µM in each case.
For `CCOC(=O)C(C[Si](C)(C)C)P(=O)(OCC)OCC` (centres undefined), the TGI in the assay on SW-620 colon, in the assay with SN12C renal, with SK-MEL-28 melanoma, in the assay on M14 melanoma, with LOX IMVI melanoma and in the assay on NCI-H23 lung was > 100 µM each time. For the same compound, the TGI in the assay on UACC-62 melanoma and in the assay on MALME-3M melanoma was > 100 µM in each case.
For `CCC1(CN(C)C)CC/C(=C\c2ccc3c(c2)OCO3)C1=O` (centres undefined), the TGI in the assay on SW-620 colon, in the assay with SN12C renal, with SK-MEL-28 melanoma, in the assay on M14 melanoma, in the assay with LOX IMVI melanoma and with NCI-H23 lung was > 100 µM in each case. Also, the TGI in the assay on UACC-62 melanoma and with MALME-3M melanoma was > 100 µM each time.
